Data as given in patent US9676704B2, “Pesticidal compositions and processes related thereto” (Dow AgroSciences LLC, priority 2014, dated 2017).
Like-named read-outs stand apart in the source and are kept apart here.

Legend:
Cabbage Looper (CL) = assay: Bioassays on CL, 128-well diet tray assay; format: in vivo; conditions: Trichoplusia ni, 168 h, read-out: CL % Control (or Mortality) rating
Method: Bioassays on CL were conducted using a 128-well diet tray assay. One to five second instar CL larvae were placed in each well (3 mL) of the diet tray that had been previously filled with 1 mL of artificial diet to which 50 μg/cm^2 of the test compound (dissolved in 50 μL of 90:10 acetone-water mixture) had been applied (to each of eight wells) and then allowed to dry. Trays were covered with a clear self-adhesive cover, and held at 25° C., 14:10 light-dark for five to seven days. Percent mortality was recorded for the larvae in each well; activity in the eight wells was then averaged. The results are indicated in the table entitled “Table ABC: Assay Results (F)”, “Table ABCD: Assay Results (C)”, and “Table ABCDE: Assay Results (P)” (See Table Section).
(§1) Bioassays on BAW and CL were conducted according to the procedures outlined in Example A: Bioassays on Beet Armyworm (“BAW”) and Cabbage Looper (“CL”) using the following concentrations: 5, 0.5, and 0.05 μg/cm^2.

[1] = system: Yellow Fever Mosquito (YFM); format: in vivo, Aedes aegypti; conditions: 15 μL of diluted 4000 ppm master solution per well, about 1 day-old larvae, 3 days
Method: Master plates containing 400 μg of a molecule dissolved in 100 μL of dimethyl sulfoxide (DMSO) (equivalent to a 4000 ppm solution) are used. A master plate of assembled molecules contains 15 μL per well. To this plate, 135 μL of a 90:10 water:acetone mixture is added to each well. A robot (Biomek® NXP Laboratory Automation Workstation) is programmed to dispense 15 μL aspirations from the master plate into an empty 96-well shallow plate (“daughter” plate). There are 6 reps (“daughter” plates) created per master. The created daughter plates are then immediately infested with YFM larvae. The day before plates are to be treated, mosquito eggs are placed in Millipore water containing liver powder to begin hatching (4 g. into 400 mL). After the daughter plates are created using the robot, they are infested with 220 μL of the liver powder/larval mosquito mixture (about 1 day-old larvae). After plates are infested with mosquito larvae, a non-evaporative lid is used to cover the plate to reduce drying. Plates are held at room temperature for 3 days prior to grading. After 3 days, each well is observed and scored based on mortality. The results are indicated in the table entitled “Table ABC: Assay Results (F)” and “Table ABCD: Assay Results (C)” (See Table Section). Pesticidally Acceptable Acid Addition Salts, Salt Derivatives, Solvates, Ester Derivatives, Polymorphs, Isotopes and Radionuclides

Beet Armyworm (BAW) = assay: Bioassays on BAW, 128-well diet tray assay; format: in vivo; conditions: Spodoptera exigua, 168 h, read-out: BAW % Control (or Mortality) rating
Method: Bioassays on BAW were conducted using a 128-well diet tray assay. one to five second instar BAW larvae were placed in each well (3 mL) of the diet tray that had been previously filled with 1 mL of artificial diet to which 50 μg/cm^2 of the test compound (dissolved in 50 μL of 90:10 acetone-water mixture) had been applied (to each of eight wells) and then allowed to dry. Trays were covered with a clear self-adhesive cover, and held at 25° C., 14:10 light-dark for five to seven days. Percent mortality was recorded for the larvae in each well; activity in the eight wells was then averaged. The results are indicated in the tables entitled “Table ABC: Assay Results (F)”, “Table ABCD: Assay Results (C)”, and “Table ABCDE: Assay Results (P)” (See Table Section).
as §1

[2] = 50 μg/cm^2 on artificial diet, second instar larvae, five to seven days, 25° C.

Row | Structure (SMILES) | mortality at 50 µg/cm2 (Cabbage Looper (CL); [2]) | YFM % Control (or Mortality) rating [1] | mortality at 50 µg/cm2 (Beet Armyworm (BAW); [2]) | mortality at 50 µg/cm2 (Cabbage Looper (CL)) | mortality at 50 µg/cm2 (Beet Armyworm (BAW))
1 | CC(NC(=O)c1ccc(/C=C/C(c2cc(Cl)c(Cl)c(Cl)c2)C(F)(F)F)cc1C(F)(F)F)NC(=O)C(C)(C)C (stereo in doubt) [Compound F19, N—((S)-1-Pivalamidoethyl)-4-((E)-4,4,4-trifluoro-3-(3,4,5-trichlorophenyl)but-1-en-1-yl)-2-(trifluoromethyl)benzamide] | 50 to 100% | A (80-100) | 50 to 100% | – | –
2 | CN(NC(=O)c1ccc(/C=C/C(c2cc(Cl)c(Cl)c(Cl)c2)C(F)(F)F)cc1C(F)(F)F)C(=O)OC(C)(C)C (stereo not drawn) [Compound C116, (E)-tert-butyl 1-methyl-2-(4-(4,4,4-trifluoro-3-(3,4,5-trichlorophenyl)but-1-en-1-yl)-2-(trifluoromethyl)benzoyl)hydrazinecarboxylate] | – | A (80-100) | – | 50 to 100% | 50 to 100%
3 | CCCCCC(=O)N[C@@H](C)NC(=O)c1ccc(/C=C/C(c2cc(Cl)c(Cl)c(Cl)c2)C(F)(F)F)cc1C(F)(F)F (stereo partly drawn) [Compound F3, N—((R)-1-hexanamidoethyl)-4-((E)-4,4,4-trifluoro-3-(3,4,5-trichlorophenyl)but-1-en-1-yl)-2-(trifluoromethyl)benzamide] | 50 to 100% | A (80-100) | 50 to 100% | – | –
4 | CC(C)CCC(=O)N[C@@H](C)NC(=O)c1ccc(/C=C/C(c2cc(Cl)c(Cl)c(Cl)c2)C(F)(F)F)cc1C(F)(F)F (stereo partly drawn) [Compound F4, N—((R)-1-(4-Methylpentanamido)ethyl)-4-((E)-4,4,4-trifluoro-3-(3,4,5-trichlorophenyl)but-1-en-1-yl)-2-(trifluoromethyl)benzamide] | 50 to 100% | A (80-100) | 50 to 100% | – | –
5 | CCCCC(=O)N[C@@H](C)NC(=O)c1ccc(/C=C/C(c2cc(Cl)c(Cl)c(Cl)c2)C(F)(F)F)cc1C(F)(F)F (stereo partly drawn) [Compound F5, N—((R)-1-Pentanamidoethyl)-4-((E)-4,4,4-trifluoro-3-(3,4,5-trichlorophenyl)but-1-en-1-yl)-2-(trifluoromethyl)benzamide] | 50 to 100% | A (80-100) | 50 to 100% | – | –
6 | CC(C)CC(=O)N[C@@H](C)NC(=O)c1ccc(/C=C/C(c2cc(Cl)c(Cl)c(Cl)c2)C(F)(F)F)cc1C(F)(F)F (stereo partly drawn) [Compound F6, N—((R)-1-(3-Methylbutanamido)ethyl)-4-((E)-4,4,4-trifluoro-3-(3,4,5-trichlorophenyl)but-1-en-1-yl)-2-(trifluoromethyl)benzamide] | 50 to 100% | A (80-100) | 50 to 100% | – | –
7 | C[C@@H](NC(=O)c1ccc(/C=C/C(c2cc(Cl)c(Cl)c(Cl)c2)C(F)(F)F)cc1C(F)(F)F)NC(=O)C1CC1 (stereo partly drawn) [Compound F7, N—((R)-1-(Cyclopropanecarboxamido)ethyl)-4-((E)-4,4,4-trifluoro-3-(3,4,5-trichlorophenyl)but-1-en-1-yl)-2-(trifluoromethyl)benzamide] | 50 to 100% | A (80-100) | 50 to 100% | – | –
8 | CC(C)=CC(=O)N[C@@H](C)NC(=O)c1ccc(/C=C/C(c2cc(Cl)c(Cl)c(Cl)c2)C(F)(F)F)cc1C(F)(F)F (stereo partly drawn) [Compound F8, N—((R)-1-(3-Methylbut-2-enamido)ethyl)-4-((E)-4,4,4-trifluoro-3-(3,4,5-trichlorophenyl)but-1-en-1-yl)-2-(trifluoromethyl)benzamide] | 50 to 100% | A (80-100) | 50 to 100% | – | –
9 | C[C@H](NC(=O)CCC#N)NC(=O)c1ccc(/C=C/C(c2cc(Cl)c(Cl)c(Cl)c2)C(F)(F)F)cc1C(F)(F)F (stereo partly drawn) [Compound F9, N—((R)-1-(3-cyanopropanamido)ethyl)-4-((E)-4,4,4-trifluoro-3-(3,4,5-trichlorophenyl)but-1-en-1-yl)-2-(trifluoromethyl)benzamide] | 50 to 100% | A (80-100) | 50 to 100% | – | –
10 | C[C@H](NC(=O)CCCC(F)(F)F)NC(=O)c1ccc(/C=C/C(c2cc(Cl)c(Cl)c(Cl)c2)C(F)(F)F)cc1C(F)(F)F (stereo partly drawn) [Compound F10, 4-((E)-4,4,4-Trifluoro-3-(3,4,5-trichlorophenyl)but-1-en-1-yl)-2-(trifluoromethyl)-N—((R)-1-(5,5,5-trifluoropentanamido)ethyl)benzamide] | 50 to 100% | A (80-100) | 50 to 100% | – | –
11 | C[C@H](NC(=O)CC#N)NC(=O)c1ccc(/C=C/C(c2cc(Cl)c(Cl)c(Cl)c2)C(F)(F)F)cc1C(F)(F)F (stereo partly drawn) [Compound F11, N—((R)-1-(2-Cyanoacetamido)ethyl)-4-((E)-4,4,4-trifluoro-3-(3,4,5-trichlorophenyl)but-1-en-1-yl)-2-(trifluoromethyl)benzamide] | 50 to 100% | A (80-100) | 50 to 100% | – | –
12 | CC[C@H](NC(=O)CCC(F)(F)F)NC(=O)c1ccc(/C=C/C(c2cc(Cl)c(Cl)c(Cl)c2)C(F)(F)F)cc1C(F)(F)F (stereo partly drawn) [Compound F12, 4-((E)-4,4,4-Trifluoro-3-(3,4,5-trichlorophenyl)but-1-en-1-yl)-N—((R)-1-(4,4,4-trifluorobutanamido)propyl)-2-(trifluoromethyl)benzamide] | 50 to 100% | A (80-100) | 50 to 100% | – | –
13 | C[C@@H](NC(=O)c1ccc(/C=C/C(c2cc(Cl)c(Cl)c(Cl)c2)C(F)(F)F)cc1C(F)(F)F)NC(=O)C1(C#N)CC1 (stereo partly drawn) [Compound F14, N—((S)-1-(1-cyanocyclopropanecarboxamido)ethyl)-4-((E)-4,4,4-trifluoro-3-(3,4,5-trichlorophenyl)but-1-en-1-yl)-2-(trifluoromethyl)benzamide] | 50 to 100% | A (80-100) | 50 to 100% | – | –
14 | C[C@H](NC(=O)CC(C)(C)C)NC(=O)c1ccc(/C=C/C(c2cc(Cl)c(Cl)c(Cl)c2)C(F)(F)F)cc1C(F)(F)F (stereo partly drawn) [Compound F15, N—((R)-1-(3,3-Dimethylbutanamido)ethyl)-4-((E)-4,4,4-trifluoro-3-(3,4,5-trichlorophenyl)but-1-en-1-yl)-2-(trifluoromethyl)benzamide] | 50 to 100% | A (80-100) | 50 to 100% | – | –
15 | CC(CC(=O)N[C@@H](C)NC(=O)c1ccc(/C=C/C(c2cc(Cl)c(Cl)c(Cl)c2)C(F)(F)F)cc1C(F)(F)F)C(F)(F)F (stereo partly drawn) [Compound F16, 4-((E)-4,4,4-Trifluoro-3-(3,4,5-trichlorophenyl)but-1-en-1-yl)-N-((1R)-1-(4,4,4-trifluoro-3-methylbutanamido)ethyl)-2-(trifluoromethyl)benzamide] | 50 to 100% | A (80-100) | 50 to 100% | – | –
16 | C[C@H](NC(=O)CCC(C)(C)C)NC(=O)c1ccc(/C=C/C(c2cc(Cl)c(Cl)c(Cl)c2)C(F)(F)F)cc1C(F)(F)F (stereo partly drawn) [Compound F17, N—((R)-1-(4,4-Dimethylpentanamido)ethyl)-4-((E)-4,4,4-trifluoro-3-(3,4,5-trichlorophenyl)but-1-en-1-yl)-2-(trifluoromethyl)benzamide] | 50 to 100% | A (80-100) | 50 to 100% | – | –
